Experiments:
Raji tumor xenografts = test: Raji xenograft in NSG mice treated with inhibitor-preconditioned rituximab CAR-T cells; format: in vivo; conditions: for prolonged median survival compared to vehicle (DMSO)-treated rituximab CAR-T cells: two doses of preconditioned rituximab CAR-T cells
Description: FIG. 2A-C. […] (A) Tumor signal (in photons/sec/cm^2/sr) in individual animals as quantified by bioluminescence imaging. […] Statistical significance was determined by Mann-Whitney U test with Holm-Sidak correction for multiple comparisons. * p<0.05, n.s. not statistically significant. (B) Kaplan-Meier survival curve (top) and table of median survival period in days (bottom). (C) Frequency of human CD45+EGFRt+ cell in peripheral blood collected from mice on day 8 after first dose of T-cell infusion. Statistical significance was determined by two-tailed Student's t test with Sidak correction for multiple comparisons. * p<0.05, ** p<0.01.
In vivo studies. Six- to eight-week-old NOD/SCID/IL-2Rγ^null (NSG) mice were obtained from UCLA Department of Radiation and Oncology. The protocol was approved by UCLA Institutional Animal Care and Used Committee. […] Details of the dose and timing of tumor injection, T-cell injection, and tumor re-challenge are indicated in the text and figures. Tumor progression/regression was monitored with an IVIS Illumina III LT Imaging System (PerkinElmer). Blood samples were harvested via retro-orbital bleeding 3 days post T-cell injection and every 10-13 days thereafter. Mice were euthanized at the humane endpoint. Bone marrow, spleen and liver were collected after euthanasia. Tissues were ground and passed through a 100-μm filter followed by red-blood-cell lysis prior to flow-cytometry analysis.

rituximab CAR-T cells [1] = test: CellTrace Violet proliferation assay without target cells or exogenous cytokines, rituximab CAR-T cells; format: cell-based, human; conditions: 4-day culture, CTV dye, vs vehicle (DMSO)
Description: (D) Proliferation of CAR^+ T cells stained with CellTrace Violet (CTV) dye was assayed after a 4-day culture in the absence of target cells or exogenous cytokines. Data shown in the histogram correspond to one of technical triplicates shown in the bar graph. The bars FIG. 1D represent data from, EGFRt, untreated, vehicle, CAL-101, AZD5363, Rapamycin, MYCi975, and Betulin, respectively, from left to right. […] In (B)-(F), results are representative two independent experiments using cells from of two heathy donors. Statistical significance in panels B, C, and D was determined by two-tailed Student's t test with Sidak correction for multiple comparisons. * p<0.05, ** p<0.01, *** p<0.001, n.s. not statistically significant.
For inhibitor analysis, starting on Day 8, T cells were cultured in T-cell media with cytokine support in the presence of 1 μM PI3K8 isoform inhibitor (CAL-101, Apex Biotechnology #A300520)), 1 μM AKT inhibitor (AZD5363, Selleckchem #S8019), 100 nM mTORC1 inhibitor (Rapamycin, LC Laboratories #R-5000), 2 μM c-Myc inhibitor (MYCi975, MedChemExpress #HY-129601), SREBP inhibitor (Betulin, MilliporeSigma #92648), or DMSO as a vehicle control. Each inhibitor molecule was solubilized in DMSO.
Proliferation assay. […] Cultures were passaged as needed, and CTV dilution was analyzed on a MACSQuant VYB flow cytometer after a 4-day co-incubation.

Raji target cells = test: 24-hr lysis assay of inhibitor-treated rituximab CD20 CAR-T cells against Raji; format: cell-based; conditions: three E:T ratios, vs vehicle-treated
From the text: (§1) FIG. 1A-G. Pharmacological inhibition of PI3K/AKT pathway modulates antigen-independent CAR-T cell activation. (A) Table of pharmacological inhibitors used during ex vivo expansion of rituximab CAR-T cells (left). Simplified schematic of the PI3K/AKT signaling axis where black arrows represent activation (right). (B) Activation marker expression by CAR^+ T cells in the absence of antigen stimulation after 5 days of pharmacological modulation. Data bars indicate the means of technical triplicates±1 S.D. The bars in FIG. 1B represent data from, untreated, vehicle, CAL-101, AZD5363, Rapamycin, MYCi975, and Betulin, respectively, from left to right. (C) TNF-α production CAR^+ T cells in the absence of antigen stimulation as quantified by intracellular flow cytometry. Data bars indicate the means of technical triplicates±1 S.D. The bars in FIG. 1B and FIG. 1C represent data from, untreated, vehicle, CAL-101, AZD5363, Rapamycin, MYCi975, and Betulin, respectively, from left to right. (D) Proliferation of CAR^+ T cells stained with CellTrace Violet (CTV) dye was assayed after a 4-day culture in the absence of target cells or exogenous cytokines. Data shown in the histogram correspond to one of technical triplicates shown in the bar graph. The bars FIG. 1D represent data from, EGFRt, untreated, vehicle, CAL-101, AZD5363, Rapamycin, MYCi975, and Betulin, respectively, from left to right. (E) % distribution of T-cell subtypes in CAR^+ T cells after 5 days of pharmacological modulation. Data bars indicate the means of technical triplicates±1 S.D. (F) Rituximab CAR-T cell fold expansion after 6 days of inhibitor culture was tracked. […] Statistical significance in panels B, C, and D was determined by two-tailed Student's t test with Sidak correction for multiple comparisons. * p<0.05, ** p<0.01, *** p<0.001, n.s. not statistically significant.
Cytotoxicity assay with Raji cells. […] Remaining target cells were quantified by MACSQuant VYB flow cytometer 24-hr post co-incubation.

rituximab CAR-T cells [2] = test: Antigen-independent activation and exhaustion marker expression by flow cytometry, rituximab CAR-T cells; format: cell-based, human; conditions: 5 days inhibitor culture, no antigen, vs vehicle (DMSO), CAL-101 1 μM, AZD5363 1 μM
From the text: FIG. 1A-G. Pharmacological inhibition of PI3K/AKT pathway modulates antigen-independent CAR-T cell activation. (A) Table of pharmacological inhibitors used during ex vivo expansion of rituximab CAR-T cells (left). Simplified schematic of the PI3K/AKT signaling axis where black arrows represent activation (right). (B) Activation marker expression by CAR^+ T cells in the absence of antigen stimulation after 5 days of pharmacological modulation. Data bars indicate the means of technical triplicates±1 S.D. The bars in FIG. 1B represent data from, untreated, vehicle, CAL-101, AZD5363, Rapamycin, MYCi975, and Betulin, respectively, from left to right. (C) TNF-α production CAR^+ T cells in the absence of antigen stimulation as quantified by intracellular flow cytometry. Data bars indicate the means of technical triplicates±1 S.D. The bars in FIG. 1B and FIG. 1C represent data from, untreated, vehicle, CAL-101, AZD5363, Rapamycin, MYCi975, and Betulin, respectively, from left to right. (D) Proliferation of CAR^+ T cells stained with CellTrace Violet (CTV) dye was assayed after a 4-day culture in the absence of target cells or exogenous cytokines. Data shown in the histogram correspond to one of technical triplicates shown in the bar graph. The bars FIG. 1D represent data from, EGFRt, untreated, vehicle, CAL-101, AZD5363, Rapamycin, MYCi975, and Betulin, respectively, from left to right. (E) % distribution of T-cell subtypes in CAR^+ T cells after 5 days of pharmacological modulation. Data bars indicate the means of technical triplicates±1 S.D. (F) Rituximab CAR-T cell fold expansion after 6 days of inhibitor culture was tracked. T-cell fold expansion was normalized to the untreated control with each data point representing biological replicates collected from healthy donors. The bars FIG. 1F represent data from, EGFRt, vehicle, CAL-101, AZD5363, Rapamycin, MYCi975, and Betulin, respectively, from left to right. (G) A 24-hr lysis assay of CD20 CAR-T cells against Raji target cells at three effector-to-target (E:T) ratios. Data bars indicate the means of technical triplicates±1 S.D. Percent lysis was normalized to cell counts in target-only wells. […] In (B)-(F), results are representative two independent experiments using cells from of two heathy donors. Statistical significance in panels B, C, and D was determined by two-tailed Student's t test with Sidak correction for multiple comparisons. * p<0.05, ** p<0.01, *** p<0.001, n.s. not statistically significant. […]
(§2) Antibody staining for flow-cytometry analysis. EGFRt expression was measured with biotinylated cetuximab (Eli Lilly; biotinylated in-house), followed by PE-conjugated streptavidin (Jackson ImmunoResearch #016-110-084). CAR expression was quantified by surface epitope staining using anti-Fc (Alexa Fluor 488, Jackson ImmunoResearch #709-546-098). Antigen-independent activation-marker expression of CAR-T cells was evaluated by antibody staining for CD137 (PE/Cy7, clone 4B4-1, BioLegend #309818), and PD-1 (FITC, clone EH12.2H7, BioLegend #329904) on Days 18 (i.e., 18 days after Dynabead addition and 11 days after Dynabead removal) and after 5-6 days of inhibitor culture (FIG. 1, FIG. 3). T-cell subtype of CAR-T cells was evaluated by antibody staining for CD45RO (VioBlue®, clone REA611, Miltenyi #130-119-620) and CD62L (APC, clone DREG56, Invitrogen #17-0629-42) after 5-6 days of inhibitor culture (FIG. 1, FIG. 3). […]

rituximab CAR-T cells [3] = test: T-cell subtype distribution (CD45RO/CD62L staining), rituximab CAR-T cells; format: cell-based, human; conditions: 5 days of pharmacological modulation, vs vehicle
From the text: as §1, with “cytokines.” for “cytokines. Data shown in the histogram correspond to one of technical triplicates shown in the bar graph. The bars FIG. 1D represent data from, EGFRt, untreated, vehicle, CAL-101, AZD5363, Rapamycin, MYCi975, and Betulin, respectively, from left to right. (E) % distribution of T-cell subtypes in CAR^+ T cells after 5 days of pharmacological modulation. Data bars indicate the means of technical triplicates±1 S.D. (F) Rituximab CAR-T cell fold expansion after 6 days of inhibitor culture was tracked.”, “significant. […]” for “significant.”
as §2, with “3).” for “3). T-cell subtype of CAR-T cells was evaluated by antibody staining for CD45RO (VioBlue®, clone REA611, Miltenyi #130-119-620) and CD62L (APC, clone DREG56, Invitrogen #17-0629-42) after 5-6 days of inhibitor culture (FIG. 1, FIG. 3).”

rituximab CAR-T cells [4] = test: TNF-α production without antigen stimulation, intracellular flow cytometry, rituximab CAR-T cells; format: cell-based, human; conditions: vs vehicle (DMSO)
From the text: as §1, with “cytokines.” for “cytokines. Data shown in the histogram correspond to one of technical triplicates shown in the bar graph. The bars FIG. 1D represent data from, EGFRt, untreated, vehicle, CAL-101, AZD5363, Rapamycin, MYCi975, and Betulin, respectively, from left to right. (E) % distribution of T-cell subtypes in CAR^+ T cells after 5 days of pharmacological modulation. Data bars indicate the means of technical triplicates±1 S.D. (F) Rituximab CAR-T cell fold expansion after 6 days of inhibitor culture was tracked.”, “significant. […]” for “significant.”

Compound: CC[C@H](Nc1ncnc2[nH]cnc12)c1nc2cccc(F)c2c(=O)n1-c1ccccc1 [CAL-101]
- prolonged median survival compared to vehicle (DMSO)-treated rituximab CAR-T cells (Raji tumor xenografts; NSG mice, Raji i.v.): 1.5 folds

Compound: CO[C@H]1C[C@@H]2CC[C@@H](C)[C@@](O)(O2)C(=O)C(=O)N2CCCC[C@H]2C(=O)O[C@H]([C@H](C)C[C@@H]2CC[C@@H](O)[C@H](OC)C2)CC(=O)[C@H](C)/C=C(\C)[C@@H](O)[C@@H](OC)C(=O)[C@H](C)C[C@H](C)/C=C/C=C/C=C/1C [rapamycin, Rapamycin]
- prolonged median survival compared to vehicle (DMSO)-treated rituximab CAR-T cells (Raji tumor xenografts; NSG mice, Raji i.v.): 1.8 folds

Compound: AZD5363
- antigen-independent cell division (rituximab CAR-T cells [1]): significantly reduced
- lysis of Raji tumor cells (Raji target cells): clustered together
- tumor outgrowth / tumor progression (Raji tumor xenografts; NSG mice, Raji i.v., preconditioned rituximab CAR-T cells, bioluminescence, vs vehicle control): delayed tumor outgrowth
- prolonged median survival compared to vehicle (DMSO)-treated rituximab CAR-T cells (Raji tumor xenografts; NSG mice, Raji i.v.): 1.6 folds
- in vivo expansion of CAR-T cells (Raji tumor xenografts; human CD45+EGFRt+ cells in peripheral blood, day 8 after first T-cell dose, vs control): significantly increased
- antigen-independent expression of activation and exhaustion markers (rituximab CAR-T cells [2]): significantly reduced
- fraction of naïve and stem-cell memory T (Tn/scm) cells / T-cell differentiation (rituximab CAR-T cells [3]): preserved a greater fraction
- TNF-α production in the absence of antigen stimulation (rituximab CAR-T cells [4]): significantly reduced
